# Target: Calcium-activated potassium channel subunit alpha-1 (Homo sapiens) (UniProt Q12791)
# Assay: Induction of step pulse-induced human BKalpha channel opening activity expressed in CHO-K1 cells at 30 uM by population patch clamp method relative to control
# Format: cell-based
# Calcium-activated potassium channel subunit alpha-1 (Homo sapiens), sequence (Q12791 whole entry): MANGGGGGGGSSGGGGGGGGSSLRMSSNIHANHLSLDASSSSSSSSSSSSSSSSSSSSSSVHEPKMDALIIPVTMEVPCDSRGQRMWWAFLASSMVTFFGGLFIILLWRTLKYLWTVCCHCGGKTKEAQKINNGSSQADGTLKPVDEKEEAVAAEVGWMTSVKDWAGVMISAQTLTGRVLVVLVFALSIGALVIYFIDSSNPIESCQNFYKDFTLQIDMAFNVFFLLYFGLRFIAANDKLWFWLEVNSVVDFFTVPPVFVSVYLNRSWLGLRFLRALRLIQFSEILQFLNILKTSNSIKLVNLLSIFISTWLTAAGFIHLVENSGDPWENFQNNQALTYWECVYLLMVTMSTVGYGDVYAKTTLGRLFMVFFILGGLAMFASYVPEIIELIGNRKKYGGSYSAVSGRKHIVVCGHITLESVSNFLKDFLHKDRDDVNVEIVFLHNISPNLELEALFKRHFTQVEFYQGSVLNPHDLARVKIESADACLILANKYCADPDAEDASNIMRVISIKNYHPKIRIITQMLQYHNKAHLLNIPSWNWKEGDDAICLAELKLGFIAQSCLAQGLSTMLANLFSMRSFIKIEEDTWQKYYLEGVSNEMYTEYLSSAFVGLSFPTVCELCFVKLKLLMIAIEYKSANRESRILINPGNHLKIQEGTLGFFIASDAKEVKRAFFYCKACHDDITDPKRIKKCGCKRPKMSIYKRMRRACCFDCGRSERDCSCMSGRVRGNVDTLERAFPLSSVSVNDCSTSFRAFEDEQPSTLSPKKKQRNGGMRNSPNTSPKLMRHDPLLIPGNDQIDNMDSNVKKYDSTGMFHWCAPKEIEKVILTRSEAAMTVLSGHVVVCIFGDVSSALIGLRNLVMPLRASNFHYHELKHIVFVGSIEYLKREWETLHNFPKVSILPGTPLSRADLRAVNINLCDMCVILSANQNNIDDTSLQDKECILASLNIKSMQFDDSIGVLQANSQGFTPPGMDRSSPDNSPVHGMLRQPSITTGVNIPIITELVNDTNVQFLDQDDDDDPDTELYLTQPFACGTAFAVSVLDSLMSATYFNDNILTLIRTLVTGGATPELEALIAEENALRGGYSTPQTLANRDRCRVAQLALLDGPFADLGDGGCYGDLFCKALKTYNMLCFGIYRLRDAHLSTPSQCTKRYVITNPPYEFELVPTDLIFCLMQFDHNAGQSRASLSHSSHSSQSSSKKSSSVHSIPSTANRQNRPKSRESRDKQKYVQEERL
row,SMILES,Activity [%]
1,COc1ccc(C(=O)NCCO/N=C2\C[C@H]3[C@](C)(C(=O)O)CCC[C@]3(C)c3cc(Br)c(C(C)C)cc32)cc1,102
2,CCc1ccc(C(=O)NCCO/N=C2\C[C@H]3[C@](C)(C(=O)O)CCC[C@]3(C)c3cc(Br)c(C(C)C)cc32)cc1,68
3,CC(C)c1cc2c(cc1Br)[C@@]1(C)CCC[C@@](C)(C(=O)O)[C@@H]1C/C2=N\OCCNC(=O)c1cc2ccccc2s1,85.7
4,CC(C)c1cc2c(cc1Br)[C@@]1(C)CCC[C@@](C)(C(=O)O)[C@@H]1C/C2=N\OCCNC(=O)c1ccccc1,121
5,COc1cccc(C(=O)NCCO/N=C2\C[C@H]3[C@](C)(C(=O)O)CCC[C@]3(C)c3cc(Br)c(C(C)C)cc32)c1,90.4
6,CC(C)c1cc2c(cc1Br)[C@@]1(C)CCC[C@@](C)(C(=O)O)[C@@H]1C/C2=N\OCCNC(=O)c1ccccn1,108
7,CC(C)c1cc2c(cc1Br)[C@@]1(C)CCC[C@@](C)(C(=O)O)[C@@H]1C/C2=N\OCCCCCCNC(=O)c1cccs1,97.2
8,COc1ccccc1C(=O)NCCO/N=C1\C[C@H]2[C@](C)(C(=O)O)CCC[C@]2(C)c2cc(Br)c(C(C)C)cc21,101
9,CC(C)c1cc2c(cc1Br)[C@@]1(C)CCC[C@@](C)(C(=O)O)[C@@H]1C/C2=N\OCCNC(=O)c1ccc(Cl)s1,103
10,CC(C)c1ccc2c(c1)/C(=N/OCCNC(=O)c1cccs1)C[C@H]1[C@](C)(C(=O)O)CCC[C@]21C,106
11,CC(C)c1cc2c(cc1Br)[C@@]1(C)CCC[C@@](C)(C(=O)O)[C@@H]1C/C2=N\OCCN,98.6
12,CC(C)c1cc2c(cc1Br)[C@@]1(C)CCC[C@@](C)(C(=O)O)[C@@H]1C/C2=N\OCCCNC(=O)c1cccs1,136
13,CC(C)c1cc2c(cc1Br)[C@@]1(C)CCC[C@@](C)(C(=O)O)[C@@H]1C/C2=N\OCCCCCNC(=O)c1cccs1,104
14,CCCCCC(=O)NCCO/N=C1\C[C@H]2[C@](C)(C(=O)O)CCC[C@]2(C)c2cc(Br)c(C(C)C)cc21,146
15,O=c1[nH]c2cc(C(F)(F)F)ccc2n1-c1cc(C(F)(F)F)ccc1O,268
16,CC(C)c1cc2c(cc1Br)[C@@]1(C)CCC[C@@](C)(C(=O)O)[C@@H]1C/C2=N\OCCNC(=O)c1cccc(C(F)(F)F)c1,113
17,CC(C)c1cc2c(cc1Br)[C@@]1(C)CCC[C@@](C)(C(=O)O)[C@@H]1C/C2=N\OCCNC(=O)c1cc2ccccc2[nH]1,89
18,CC(C)c1cc2c(cc1Br)[C@@]1(C)CCC[C@@](C)(C(=O)O)[C@@H]1C/C2=N\OCCNC(=O)c1ccc(Br)s1,107

# Next, values leading:
row,Activity [%],SMILES
1,106,CC(C)c1cc2c(cc1Br)[C@@]1(C)CCC[C@@](C)(C(=O)O)[C@@H]1C/C2=N\OCCNC(=O)c1cc(Br)cs1
2,118,CC(C)c1cc2c(cc1Br)[C@@]1(C)CCC[C@@](C)(C(=O)O)[C@@H]1C/C2=N\OCCNC(=O)c1ccccc1F
3,101,Cc1ccc(C(=O)NCCO/N=C2\C[C@H]3[C@](C)(C(=O)O)CCC[C@]3(C)c3cc(Br)c(C(C)C)cc32)s1
4,124,CC(C)c1cc2c(cc1Br)[C@@]1(C)CCC[C@@](C)(C(=O)O)[C@@H]1C/C2=N\OCCNC(=O)c1ccc[nH]1
5,142,CC(C)C(=O)NCCO/N=C1\C[C@H]2[C@](C)(C(=O)O)CCC[C@]2(C)c2cc(Br)c(C(C)C)cc21
6,149,CC(C)c1cc2c(cc1Br)[C@@]1(C)CCC[C@@](C)(C(=O)O)[C@@H]1C/C2=N\OCCNC(=O)C1CC1
7,151,CC(C)c1cc2c(cc1Br)[C@@]1(C)CCC[C@@](C)(C(=O)O)[C@@H]1C/C2=N\OCCNC(=O)c1ccco1
8,107,CC(C)c1cc2c(cc1Br)[C@@]1(C)CCC[C@@](C)(C(=O)O)[C@@H]1C/C2=N\OCCNC(=O)c1ccc(C(F)(F)F)cc1
9,128,CC(C)c1cc2c(cc1Br)[C@@]1(C)CCC[C@@](C)(C(=O)O)[C@@H]1C/C2=N\OCCNC(=O)c1ccsc1
10,204,CC(C)c1cc2c(cc1Br)[C@@]1(C)CCC[C@@](C)(C(=O)O)[C@@H]1C/C2=N\OCCNC(=O)c1nccs1
11,140,CC(=O)NCCO/N=C1\C[C@H]2[C@](C)(C(=O)O)CCC[C@]2(C)c2cc(Br)c(C(C)C)cc21
12,123,CC(C)c1cc2c(cc1Br)[C@@]1(C)CCC[C@@](C)(C(=O)O)[C@@H]1C/C2=N\OCCNC(=O)c1ccccc1C(F)(F)F
13,136,CC(C)c1cc2c(cc1Br)[C@@]1(C)CCC[C@@](C)(C(=O)O)[C@@H]1C/C2=N\OCCNC(=O)c1c(F)c(F)c(F)c(F)c1F
14,267,CC(C)c1cc2c(cc1Br)[C@@]1(C)CCC[C@@](C)(C(=O)O)[C@@H]1C/C2=N\OCCNC(=O)c1cccs1

# Reference: ChEMBL document CHEMBL3745644, “The synthesis and BK channel-opening activity of N-acylaminoalkyloxime derivatives of dehydroabietic acid” (Bioorg Med Chem Lett, 2016)
